Test results from ChEMBL document CHEMBL5143548, “Morphinan derivatives with an oxabicyclo[3.2.1]octane structure as dual agonists toward δ and κ opioid receptors” (Bioorg Med Chem, 2022).

Key:
[1] = target: T1, Kappa-type opioid receptor (Homo sapiens, UniProt P41145); assay: Agonist activity at human kappa opioid receptor expressed in CHO cell membranes assessed as stimulation of [35S]GTPgammaS binding incubated for 2 hrs by scintillation counting method relative to U-69593; assay type: functional; conditions: Membrane
[2] = target: T2, Delta-type opioid receptor (Homo sapiens, UniProt P41143); assay: Agonist activity at human delta opioid receptor expressed in CHO cell membranes assessed as stimulation of [35S]GTPgammaS binding incubated for 2 hrs by scintillation counting method relative to SNC80; assay type: functional; conditions: Membrane
Mu-type opioid receptor [3] = target: T3, Mu-type opioid receptor (Homo sapiens, UniProt P35372); assay: Displacement of [3H]-DAMGO from recombinant human MOR expressed in CHO cell membranes measured after 2 hrs by microbeta scintillation counting method; design: species or system Membrane
mu opioid receptor (MOR) = mu opioid receptor (MOR) (Homo sapiens, UniProt P35372); assay: Agonist activity at human mu opioid receptor expressed in CHO cell membranes assessed as stimulation of [35S]GTPgammaS binding incubated for 2 hrs by scintillation counting method relative to DAMGO; design: species or system Membrane; conditions: CHO cell membranes expressing human mu opioid receptor, probe [35S]GTPgammaS
[4] = target: T1, Kappa-type opioid receptor; assay: Displacement of [3H]-U-69593 from recombinant human KOR expressed in CHO cell membranes measured after 2 hrs by microbeta scintillation counting method; design: species or system Membrane
Homo sapiens [5] = species: Homo sapiens; assay: Selectivity ratio of Ki for displacement of [3H]-DPDPE from recombinant human DOR expressed in CHO cell membranes to Ki for displacement of [3H]-U-69593 from recombinant human KOR expressed in CHO cell membranes
[6] = target: T1, Kappa-type opioid receptor; assay: Agonist activity at human kappa opioid receptor expressed in CHO cell membranes assessed as stimulation of [35S]GTPgammaS binding incubated for 2 hrs by scintillation counting method; assay type: functional, Membrane
[7] = target: T2, Delta-type opioid receptor; assay: Agonist activity at human delta opioid receptor expressed in CHO cell membranes assessed as stimulation of [35S]GTPgammaS binding incubated for 2 hrs by scintillation counting method; assay type: functional, Membrane
[8] = target: T2, Delta-type opioid receptor; assay: Displacement of [3H]-DPDPE from recombinant human DOR expressed in CHO cell membranes measured after 2 hrs by microbeta scintillation counting method; design: species or system Membrane
Mu-type opioid receptor [9] = target: T3, Mu-type opioid receptor; assay: Agonist activity at human mu opioid receptor expressed in CHO cell membranes assessed as stimulation of [35S]GTPgammaS binding incubated for 2 hrs by scintillation counting method; design: species or system Membrane
Homo sapiens [10] = species: Homo sapiens; assay: Selectivity ratio of Ki for displacement of [3H]-DAMGO from recombinant human MOR expressed in CHO cell membranes to Ki for displacement of [3H]-U-69593 from recombinant human KOR expressed in CHO cell membranes
Mu-type opioid receptor [11] = target: T3, Mu-type opioid receptor; assay: Agonist activity at human mu opioid receptor expressed in CHO cell membranes assessed as stimulation of [35S]GTPgammaS binding at 10 uM incubated for 2 hrs by scintillation counting method relative to DAMGO; design: species or system Membrane

T2 sequence (P41143 whole entry): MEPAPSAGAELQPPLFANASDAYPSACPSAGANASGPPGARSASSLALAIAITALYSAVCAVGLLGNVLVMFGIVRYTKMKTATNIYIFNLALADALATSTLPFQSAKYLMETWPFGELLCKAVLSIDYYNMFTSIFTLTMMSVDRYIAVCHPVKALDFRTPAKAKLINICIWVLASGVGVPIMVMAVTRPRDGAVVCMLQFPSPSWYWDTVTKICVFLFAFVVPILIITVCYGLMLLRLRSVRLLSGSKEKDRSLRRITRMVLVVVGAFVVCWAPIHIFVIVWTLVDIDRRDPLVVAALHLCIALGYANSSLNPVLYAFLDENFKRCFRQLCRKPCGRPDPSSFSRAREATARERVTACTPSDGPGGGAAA
T3 sequence (P35372 whole entry): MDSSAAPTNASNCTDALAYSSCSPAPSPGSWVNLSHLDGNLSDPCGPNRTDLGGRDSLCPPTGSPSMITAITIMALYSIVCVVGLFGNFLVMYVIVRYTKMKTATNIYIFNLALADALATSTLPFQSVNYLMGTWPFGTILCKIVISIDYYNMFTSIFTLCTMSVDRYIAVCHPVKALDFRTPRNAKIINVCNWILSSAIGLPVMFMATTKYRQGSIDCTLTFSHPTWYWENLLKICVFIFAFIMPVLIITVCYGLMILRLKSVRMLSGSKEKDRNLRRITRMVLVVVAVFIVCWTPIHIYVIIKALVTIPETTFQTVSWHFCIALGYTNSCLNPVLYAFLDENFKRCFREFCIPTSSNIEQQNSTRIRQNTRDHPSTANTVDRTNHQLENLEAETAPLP
mu opioid receptor (MOR), sequence (P35372 whole entry): as above
T1 sequence (P41145 whole entry): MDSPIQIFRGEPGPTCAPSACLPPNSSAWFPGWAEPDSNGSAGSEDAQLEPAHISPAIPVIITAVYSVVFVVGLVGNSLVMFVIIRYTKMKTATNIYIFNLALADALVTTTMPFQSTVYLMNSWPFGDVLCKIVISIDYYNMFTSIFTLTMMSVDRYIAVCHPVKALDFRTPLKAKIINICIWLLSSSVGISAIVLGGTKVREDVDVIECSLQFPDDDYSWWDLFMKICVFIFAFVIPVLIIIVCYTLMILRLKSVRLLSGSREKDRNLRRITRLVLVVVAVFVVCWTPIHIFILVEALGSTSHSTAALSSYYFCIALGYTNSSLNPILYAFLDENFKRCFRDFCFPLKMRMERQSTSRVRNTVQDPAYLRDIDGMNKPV

Question: How did the Emax [1] turn out when O=C(Cc1ccccc1)N[C@H]1C[C@]23CCN(CC4CC4)[C@H](Cc4ccc(O)cc42)[C@]32CC[C@@H]1O2 was run?
Answer: 35.8%

Question: And the Emax ([2]; filed as agonist)?
Answer: 101%

Question: And the Ki (Mu-type opioid receptor [3])?
Answer: 3.81 nM

Question: And the Emax at 2 h (mu opioid receptor (MOR))?
Answer: 8.7%

Question: And the Ki [4]?
Answer: 1.71 nM

Question: And the Ratio Ki (Homo sapiens [5])?
Answer: 2.9

Question: What about the EC50 [6] of the same molecule?
Answer: 13.4 nM

Question: And the EC50 [7]?
Answer: 3.83 nM

Question: And the Ki [8]?
Answer: 4.98 nM

Question: And the EC50 (Mu-type opioid receptor [9])?
Answer: 5.37 nM

Question: And the Ratio Ki (Homo sapiens [10])?
Answer: 2.2

Question: With CN(C(=O)c1ccccc1)[C@@H]1C[C@]23CCN(CC4CC4)[C@H](Cc4ccc(O)cc42)[C@]32CC[C@@H]1O2 as the molecule, how does the Emax [1] read?
Answer: 34.6%

Question: What about the Emax [2] of the same molecule?
Answer: 27.7%

Question: And the Ki (Mu-type opioid receptor [3])?
Answer: 1.42 nM

Question: What about the Emax at 2 h (mu opioid receptor (MOR)) of the same molecule?
Answer: 47.5%

Question: What about the Ki [4] of the same molecule?
Answer: 0.256 nM

Question: And the Ratio Ki (Homo sapiens [5])?
Answer: 90.6

Question: And the EC50 [6]?
Answer: 1.59 nM

Question: What about the EC50 [7] of the same molecule?
Answer: 0.171 nM

Question: What about the Ki [8] of the same molecule?
Answer: 23.2 nM

Question: And the EC50 (Mu-type opioid receptor [9])?
Answer: 4.7 nM

Question: What about the Ratio Ki (Homo sapiens [10]) of the same molecule?
Answer: 5.5

Question: Which results are given for O=C(N[C@H]1C[C@]23CCN(CC4CC4)[C@H](Cc4ccc(O)cc42)[C@]32CC[C@@H]1O2)c1ccccc1?
Answer: Emax [1]: 23.7%; Emax ([2]; filed as agonist): 97.4%; Ki (Mu-type opioid receptor [3]): 0.564 nM; Ki [4]: 10.6 nM; Ratio Ki (Homo sapiens [5]): 0.54; EC50 [6]: 32.4 nM; Activity (Mu-type opioid receptor [11]): 10.2%; EC50 [7]: 51.9 nM; Ki [8]: 5.68 nM; Ratio Ki (Homo sapiens [10]): 0.05

Question: Which Emax ([1]; filed as partial agonist) does the source give for O=C(CCc1ccccc1)N[C@H]1C[C@]23CCN(CC4CC4)[C@H](Cc4ccc(O)cc42)[C@]32CC[C@@H]1O2 here?
Answer: 50.3%

Question: And the Emax ([2]; filed as agonist)?
Answer: 111%

Question: What about the Ki (Mu-type opioid receptor [3]) of the same molecule?
Answer: 1.08 nM

Question: What about the Emax at 2 h (mu opioid receptor (MOR)) of the same molecule?
Answer: 11.4%

Question: What about the Ki [4] of the same molecule?
Answer: 2.36 nM

Question: And the Ratio Ki (Homo sapiens [5])?
Answer: 2.2

Question: What about the EC50 [6] of the same molecule?
Answer: 6.32 nM

Question: And the EC50 [7]?
Answer: 54.7 nM

Question: What about the Ki [8] of the same molecule?
Answer: 5.14 nM

Question: What about the EC50 (Mu-type opioid receptor [9]) of the same molecule?
Answer: 9.35 nM

Question: What about the Ratio Ki (Homo sapiens [10]) of the same molecule?
Answer: 0.46

Question: Which Emax ([1]; filed as partial agonist) does the source give for CN(C(=O)CCc1ccccc1)[C@@H]1C[C@]23CCN(CC4CC4)[C@H](Cc4ccc(O)cc42)[C@]32CC[C@@H]1O2 here?
Answer: 58.5%

Question: What about the Emax ([2]; filed as agonist) of the same molecule?
Answer: 85.2%

Question: And the Ki (Mu-type opioid receptor [3])?
Answer: 1.46 nM

Question: What about the Emax at 2 h (mu opioid receptor (MOR)) of the same molecule?
Answer: 33.4%

Question: And the Ki [4]?
Answer: 0.332 nM

Question: What about the Ratio Ki (Homo sapiens [5]) of the same molecule?
Answer: 61.7

Question: What about the EC50 [6] of the same molecule?
Answer: 9.95 nM

Question: What about the EC50 [7] of the same molecule?
Answer: 21.4 nM

Question: What about the Ki [8] of the same molecule?
Answer: 20.5 nM

Question: And the EC50 (Mu-type opioid receptor [9])?
Answer: 5.61 nM

Question: And the Ratio Ki (Homo sapiens [10])?
Answer: 4.4

Question: Which Emax ([1]; filed as partial agonist) does the source give for O=C(CCc1ccccc1)N[C@@H]1C[C@]23CCN(CC4CC4)[C@H](Cc4ccc(O)cc42)[C@]32CC[C@@H]1O2 here?
Answer: 75.4%

Question: What about the Emax ([2]; filed as agonist) of the same molecule?
Answer: 104%

Question: And the Ki (Mu-type opioid receptor [3])?
Answer: 0.126 nM

Question: And the Emax at 2 h (mu opioid receptor (MOR))?
Answer: 10.2%

Question: What about the Ki [4] of the same molecule?
Answer: 0.197 nM

Question: And the Ratio Ki (Homo sapiens [5])?
Answer: 26.3

Question: And the EC50 [6]?
Answer: 5.31 nM

Question: And the EC50 [7]?
Answer: 112 nM

Question: What about the Ki [8] of the same molecule?
Answer: 5.18 nM

Question: What about the EC50 (Mu-type opioid receptor [9]) of the same molecule?
Answer: 12.7 nM

Question: And the Ratio Ki (Homo sapiens [10])?
Answer: 0.64

Question: With O=C(N[C@@H]1C[C@]23CCN(CC4CC4)[C@H](Cc4ccc(O)cc42)[C@]32CC[C@@H]1O2)c1ccccc1 as the molecule, how does the Emax ([1]; filed as partial agonist) read?
Answer: 87.7%

Question: And the Emax ([2]; filed as agonist)?
Answer: 106%

Question: What about the Ki (Mu-type opioid receptor [3]) of the same molecule?
Answer: 0.165 nM

Question: And the Emax at 2 h (mu opioid receptor (MOR))?
Answer: 47.2%

Question: What about the Ki [4] of the same molecule?
Answer: 0.14 nM

Question: And the Ratio Ki (Homo sapiens [5])?
Answer: 11.9

Question: And the EC50 [6]?
Answer: 1.82 nM

Question: What about the EC50 [7] of the same molecule?
Answer: 2.86 nM

Question: And the Ki [8]?
Answer: 1.67 nM

Question: What about the EC50 (Mu-type opioid receptor [9]) of the same molecule?
Answer: 2.72 nM

Question: And the Ratio Ki (Homo sapiens [10])?
Answer: 1.2

Question: With O=C(Cc1ccccc1)N[C@@H]1C[C@]23CCN(CC4CC4)[C@H](Cc4ccc(O)cc42)[C@]32CC[C@@H]1O2 as the molecule, how does the Emax ([1]; filed as partial agonist) read?
Answer: 68.4%

Question: What about the Emax ([2]; filed as agonist) of the same molecule?
Answer: 85.3%

Question: What about the Ki (Mu-type opioid receptor [3]) of the same molecule?
Answer: 0.267 nM

Question: What about the Emax at 2 h (mu opioid receptor (MOR)) of the same molecule?
Answer: 28.2%

Question: And the Ki [4]?
Answer: 0.193 nM

Question: What about the Ratio Ki (Homo sapiens [5]) of the same molecule?
Answer: 2.7

Question: What about the EC50 [6] of the same molecule?
Answer: 3.11 nM

Question: What about the EC50 [7] of the same molecule?
Answer: 5.96 nM

Question: What about the Ki [8] of the same molecule?
Answer: 0.522 nM

Question: And the EC50 (Mu-type opioid receptor [9])?
Answer: 9.43 nM

Question: And the Ratio Ki (Homo sapiens [10])?
Answer: 1.4

Question: With CN(C(=O)Cc1ccccc1)[C@@H]1C[C@]23CCN(CC4CC4)[C@H](Cc4ccc(O)cc42)[C@]32CC[C@@H]1O2 as the molecule, how does the Emax ([1]; filed as partial agonist) read?
Answer: 88.6%

Question: What about the Emax [2] of the same molecule?
Answer: 39.7%

Question: And the Ki (Mu-type opioid receptor [3])?
Answer: 1.74 nM

Question: What about the Emax at 2 h (mu opioid receptor (MOR)) of the same molecule?
Answer: 40.3%

Question: And the Ki [4]?
Answer: 0.278 nM

Question: What about the Ratio Ki (Homo sapiens [5]) of the same molecule?
Answer: 70.1

Question: What about the EC50 [6] of the same molecule?
Answer: 8.44 nM

Question: And the EC50 [7]?
Answer: 43.6 nM

Question: What about the Ki [8] of the same molecule?
Answer: 19.5 nM

Question: What about the EC50 (Mu-type opioid receptor [9]) of the same molecule?
Answer: 7.11 nM

Question: And the Ratio Ki (Homo sapiens [10])?
Answer: 6.3
